Assay results from patent publication US20050261221A1, “Compositions and methods for enhanced delivery of compounds via transfection complexes” (priority 2004, published 2005).
Where “and” joins values, the source holds several entries; their conditions need not be identical. Equal entries are not always repeated. Entries after “also recorded” stand apart in the source; their conditions may differ.

Columns and labels:
[1] = system: vascular smooth muscle cells (VSMCs); assay: Transfection of VSMCs with cationic phospholipid (EDOPC)-DNA complexes, β-galactosidase microplate fluorometric assay; format: cell-based, Wistar rats; conditions: for Effect on transfection: 0.001-0.5 μM cytochalasin B for 3 h, then DNA-lipid complexes 3 h
Procedure: Primary vascular smooth muscle cells were obtained by removal of the thoracoabdominal aortas of Wistar rats, which were then stripped of endothelium and adventitia. Medial VSMCs were maintained in Dubecco's Modified Eagle's Medium (DMEM), 20% fetal bovine serum (FBS), 200 units/ml penicillin, 200 μg/ml streptomycin (all Gibco, Gaitherburg, Md.) at 37° C. with 5% CO2. At confluence, the cells were passaged using 0.25 mg/ml Trypsin/EDTA (Clonetics, Walkersville, Md.) and were used at passage 3-10 for these experiments.
The cells were seeded in 96-well plates at 24 h before transfection at densities to give about 80% confluence at the time of transfection. Normally, EDOPC was suspended in D-PBS at 1 mg/ml to form liposomes. Liposomes and plasmid DNA were diluted in serum-free cell culture medium to 60 μg/ml for lipid and to 20 μg/ml for DNA, and liposomes were pipetted into an equal volume of plasmid DNA solution at a 3:1 weight ratio and mixed gently. The resultant DNA-lipid complexes were incubated at room temperature for 15 min and then added to the cells that were either in medium lacking serum or medium containing 20% fetal bovine serum (FBS). At 3 h after addition of DNA-lipid complexes, except as stated otherwise, the cells were washed with PBS and fresh medium containing 20% FBS was added. Generally, the cells were incubated with free drugs in 20% FBS DMEM for the indicated duration, and then, unless otherwise described, the cells were washed with PBS and incubated with DNA-lipid complexes. For experiments involving co-treatment with taxol and colchicine, the cells were first incubated with taxol for 30 min and then colchicine was added to the medium. […] Subsequent steps were same as for the normal lipoplexes.
Cells were assayed for β-galactosidase activity 24 h after transfection with a microplate fluorometric assay, modified by inclusion of a heating step (50° C., 45 min) to inactivate endogenous enzyme activity. Following aspiration of the medium from each well, the cells were washed once with PBS and then lysed by addition of 100 μl lysis buffer (0.03% Triton X-100 in 100 mM HEPES, pH 7.8, containing 1 mM MgSO4, 10 mM KCl). The plates were placed at 50° C. for 45 min and then allowed to cool to room temperature. 10 μl 100 μM FDG (fluorescein di-β-D-galactopyranoside) was added into each well. Fluorescence was measured with a microplate fluorimeter (Model 7620, Cambridge Technology Inc.) after incubation at 37° C. for 3 h. Fluorescence intensity is proportional to β-galactosidase expression; 2000 fluorescence units corresponded approximately to 0.1 milliunit of β-galactosidase. The expression of VSMCs transfected with normal lipoplexes in absence of serum and any pretreatment was ˜0.1 milliunit per well.

[2] = system: nerve growth factor (NGF) mRNA; conditions: reported [39]; cited from earlier work
[3] = cited from earlier work
[4] = 100 μM TLCK in fresh 20% FBS after 3 h lipoplex treatment

With `COC(=O)Nc1nc2ccc(C(=O)c3cccs3)cc2[nH]1` [Nocodazole, nocodazole] the “Fold increase of transfection means ± S.D.” value ([1]; optimal conditions: 50 μM free drug, 3 h pretreatment, 20% FBS) was 14 ± 2.0 fold, the “Fold increase of transfection means ± S.D.” value ([1]; optimal conditions: 50 μM free drug, 3 h pretreatment, 20% FBS, listed as nocodazole) was 14 fold and the “Fold increase of transfection means ± S.D.” value ([1]; optimal conditions: 50 μM free drug, 3 h pretreatment, No serum) was 31 ± 5.0 fold. The “Fold increase of transfection means ± S.D.” value ([1]; optimal conditions: 50 μM free drug, 3 h pretreatment, No serum, listed as nocodazole) was 31 fold and the “Effect on the level of NGF mRNA” value [2] was “increase”.
With `S=C(S)N1CCCC1` [PDTC, pyrrolidinedithiocarbamate] the inhibition at 10 µM ([1]; Rattus norvegicus, VSMC, read-out: Reduction of transfection with VB-lipoplexes (inhibition of vinblastine stimulation), 10 μM PDTC in fresh 20% FBS after 3 h lipoplex treatment) was 85% and the “Transfection stimulation by VB-lipoplexes” value ([1]; after treatment with 10 μM PDTC) was 5 ×.
With `Cc1ccc(S(=O)(=O)N[C@@H](CCCCN)C(=O)CCl)cc1` [TLCK, Nα-p-tosyl-L-lysine chloromethyl ketone] the “Decrease of transfection of VB-lipoplexes (inhibition of vinblastine stimulation)” value [1, 4] was 66% and the “Decrease of transfection of normal lipoplexes” value [1, 4] was 50%.
For `CC[C@]1(O)C[C@H]2CN(CCc3c([nH]c4ccccc34)[C@@](C(=O)OC)(c3cc4c(cc3OC)N(C=O)[C@H]3[C@@](O)(C(=O)OC)[C@H](OC(C)=O)[C@]5(CC)C=CCN6CC[C@]43[C@@H]65)C2)C1` [Vincristine, vincristine], the “Fold increase of transfection means ± S.D.” value ([1]; optimal conditions: 1/50 (w/w) VC/lipid incorporated in lipid, 20% FBS during 3 h incubation with complexes) was 39 ± 6.9 fold, the “Fold increase of transfection means ± S.D.” value ([1]; optimal conditions: 1/50 (w/w) VC/lipid incorporated in lipid, 20% FBS during 3 h incubation with complexes, listed as vincristine) was 39 fold and the “Fold increase of transfection means ± S.D.” value ([1]; optimal conditions: 1/50 (w/w) VC/lipid incorporated in lipid, No serum during 3 h incubation with complexes) was 25 ± 5.7 fold. For the same molecule, the “Fold increase of transfection means ± S.D.” value ([1]; optimal conditions: 1/50 (w/w) VC/lipid incorporated in lipid, No serum during 3 h incubation with complexes, listed as vincristine) was 25 fold.
For `COc1cc2c(c(OC)c1OC)-c1ccc(OC)c(=O)cc1[C@@H](NC(C)=O)CC2` [colchicine, Colchicine], the “Effect on transfection when added to cells simultaneously with lipoplexes” value ([1]; 0.05 μg/ml colchicine, simultaneous with lipoplexes, absence of serum) was “increased marginally”, the “Effect on expression when added to cells simultaneously with lipoplexes” value ([1]; free colchicine added simultaneously with lipoplexes) was “not noticeably stimulated; also recorded: no stimulation” and the “Fold increase of transfection (β-galactosidase expression)” value ([1]; pretreatment with 8 μg/ml free colchicine 3 h, 20% FBS) was ~23 fold and 24 fold. The “Fold increase of transfection (β-galactosidase expression)” value ([1]; pretreatment with 8.0 μg/ml free colchicine 3 h, absence of serum) was roughly 23 fold and the “Effect on the level of NGF mRNA” value [2] was “increase”.
In the case of `C=C1[C@@H](C)[C@H]2[C@H](Cc3ccccc3)NC(=O)[C@]23OC(=O)/C=C/[C@H](O)CCC[C@@H](C)C/C=C/[C@H]3[C@@H]1O` [cytochalasin B], the Effect on transfection [1] is given as “No effect”, the Effect on transfection ([1]; listed as Cytochalasin B) is given as “no effect” and the “Effect on the level of NGF mRNA” value [2] is given as “does not increase”.
With `CC[C@@]1([C@@H]2O[C@@H]([C@H]3O[C@@](O)(CO)[C@H](C)C[C@@H]3C)C[C@@H]2C)CC[C@H]([C@]2(C)CC[C@]3(C[C@H](O)[C@@H](C)[C@@H]([C@@H](C)[C@@H](OC)[C@H](C)C(=O)O)O3)O2)O1` [monensin] the “Fold effect on transfection relative to no pretreatment” value ([1]; 1 μM monensin for 15 min, then normal DNA-lipid complexes (FIG. 6)) was 9.5 fold.
With `COc1cc([C@@H]2c3cc4c(cc3[C@H](O)[C@H]3COC(=O)[C@H]23)OCO4)cc(OC)c1OC` [podophyllotoxin] the “Fold increase of transfection means ± S.D.” value ([1]; optimal conditions: 20 μM free drug, 3 h pretreatment, 20% FBS) was 14 fold and 14 ± 5.8 fold and the “Fold increase of transfection means ± S.D.” value ([1]; optimal conditions: 20 μM free drug, 3 h pretreatment, No serum) was 26 fold and 26 ± 4.5 fold.
With `CC(=O)O[C@H]1C(=O)[C@@]2(C)[C@H]([C@H](OC(=O)c3ccccc3)[C@]3(O)C[C@H](OC(=O)[C@H](O)[C@@H](NC(=O)c4ccccc4)c4ccccc4)C(C)=C1C3(C)C)[C@]1(OC(C)=O)CO[C@@H]1C[C@@H]2O` [taxol] the “Effect on the stimulation of transfection by colchicine” value ([1]; 4 μM taxol 30 min, then 0.8 μg/ml colchicine added) was “blocked”, the “Effect on transfection efficiency, taxol alone” value ([1]; pretreatment with 4 μM taxol 3 h) was “no effect” and the “Effect on the stimulation of VB-lipoplexes” value ([1]; pretreatment with taxol) was “blocked”. For the same molecule, the “Effect on colchicine's increase of NGF mRNA” value [2] was “suppresses”.
For `CC[C@]1(O)C[C@@H]2CN(CCc3c([nH]c4ccccc34)[C@@](C(=O)OC)(c3cc4c(cc3OC)N(C)[C@H]3[C@@](O)(C(=O)OC)[C@H](OC(C)=O)[C@]5(CC)C=CCN6CC[C@]43[C@@H]65)C2)C1` [vinblastine], the “Stimulation of transfection of SMGA-β-Gal plasmid (smooth muscle γ-actin gene promoter)” value ([1]; CMV-IEP-β-Gal replaced with SMGA-β-Gal, preliminary result) is given as “not stimulated”, the “Maximal stimulation of transgene expression” value ([1]; vinblastine incorporated into the lipoplexes) is given as roughly 30 fold and the Solubility in chloroform ([3]; chloroform) is given as “soluble”. The Solubility in water ([3]; water) was “essentially insoluble” and the “Effect on the level of NGF mRNA” value [2] was “increase”.
